We go through eleven compounds from patent US20260070945A1, “MACROCYCLIC IMMUNOMODULATORS” (Bristol-Myers Squibb Company, priority 2022, published 2026).

*1 amine or outer side, *2 acyl side, *3 side chain or, on linkers, in order; H or OH if unused. Where a SMILES comes first, the peptide text is derived from it. Bridges are numbered along the chain shown (N, C = ends). [ ]: non-standard residue; d: D form. The star is where a group is joined. Phe(3-CF3) = N[C@@H](Cc1cccc(C(F)(F)F)c1)C(=O)O; Ala(morpholin-4-yl) = N[C@@H](CN1CCOCC1)C(=O)O; Phe(4-COOH) = N[C@@H](Cc1ccc(C(=O)O)cc1)C(=O)O; Bip = N[C@@H](Cc1ccc(-c2ccccc2)cc1)C(=O)O; γGlu = O=C(O)[C@H](CCC(=O)[*:2])N[*:1]; Abu(3S-NH2) = C[C@H](N)[C@H](N)C(=O)O; NH(CH2)12COOH = O=C(O)CCCCCCCCCCCCN*; Val(3-OH) = CC(C)(O)[C@H](N)C(=O)O; Cha = N[C@@H](CC1CCCCC1)C(=O)O; Cit = NC(=O)NCCC[C@H](N)C(=O)O; Carboxymethyl = O=C(O)C*; NMeA = CN[C@@H](C)C(=O)O; Dab = NCC[C@H](N)C(=O)O; AEEA = NCCOCCOCC(=O)O

The term IC50 denotes the concentration needed to halve the response being measured.

The target of the assay is T1, PD-1/PD-L1 interaction (PE-labeled human PD-L1-Ig binding to Jurkat cell line over-expressing human PD-1) (Homo sapiens, UniProt Q15116).
T1 construct: expressed in transfected cells; host or cells: Jurkat
T1 sequence (Q15116 25-288): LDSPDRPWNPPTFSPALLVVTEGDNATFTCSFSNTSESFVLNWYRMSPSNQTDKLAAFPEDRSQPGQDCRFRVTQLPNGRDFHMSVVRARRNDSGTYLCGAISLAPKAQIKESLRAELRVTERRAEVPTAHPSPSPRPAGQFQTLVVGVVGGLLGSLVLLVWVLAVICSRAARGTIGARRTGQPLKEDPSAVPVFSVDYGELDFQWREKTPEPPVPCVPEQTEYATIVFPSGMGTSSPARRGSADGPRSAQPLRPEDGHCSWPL
The experiment in a line: Jurkat-PD-1 Cell Binding High-Content Screening Assay (CBA). The note with it: Jurkat-hPD-1 cells, PE-labeled PD-L1-Ig 20 nM final; read-out: Jurkat HPD1 PDL1 IC50. A digest of the protocol:
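Binding of 20 nM (final) PE-tagged PD-L1-Ig to compound-pretreated Jurkat-hPD-1 cells was measured by high-content imaging after 1 h. Pretreatment ran 2 h at 37 °C in DMEM with 10% fetal calf serum.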
Turning to `COC[C@@H]1NC(=O)CSC[C@@H](C(=O)N[C@@H](CCN)C(=O)NCCOCCOCC(=O)N[C@@H](CCC(=O)NCCOCCOCC(=O)NCCCCCCCCCCCCC(=O)O)C(=O)O)NC(=O)[C@H](CO)NC(=O)[C@H](C(C)(C)O)NC(=O)[C@H](CC2CCCCC2)NC(=O)[C@H](CCN)NC(=O)[C@@H](CC(C)C)NC(=O)[C@H](C)N(C)C(=O)[C@H](CCCNC(N)=O)NC(=O)[C@H](Cc2ccc(-c3ccccc3)cc2)NC(=O)[C@H](Cc2ccc(C(=O)O)cc2)NC(=O)[C@H](Cc2cccc(C(F)(F)F)c2)NC(=O)[C@H](CC(=O)O)NC(=O)[C@H](Cc2ccc(OCC(=O)O)cc2)NC1=O` [Example 1181] ({CH2CO}-S(Me)Y(Carboxymethyl)D[Phe(3-CF3)][Phe(4-COOH)][Bip][Cit][NMeA][dL][Dab][Cha][Val(3-OH)]SC[Dab][AEEA][γGlu][AEEA]-{NH(CH2)12COOH}; thioether N-14), the IC50 came out at 48.5 nM.

For `CC(C)C[C@H]1NC(=O)[C@H](C)N(C)C(=O)[C@H](CCC(N)=O)NC(=O)[C@H](Cc2ccc(-c3ccccc3)cc2)NC(=O)[C@H](Cc2ccc(C(=O)O)cc2)NC(=O)[C@H](Cc2cccc(C(F)(F)F)c2)NC(=O)[C@H](CC(=O)O)NC(=O)[C@H](Cc2ccc(OCC(=O)O)cc2)NC(=O)[C@H](Cc2ccc(C(=O)O)cc2)NC(=O)CSC[C@@H](C(=O)N[C@@H](CCN)C(=O)NCCOCCOCC(=O)N[C@@H](CCC(=O)NCCOCCOCC(=O)NCCCCCCCCCCCCC(=O)O)C(=O)O)NC(=O)[C@H](CC(=O)O)NC(=O)[C@H](C(C)(C)O)NC(=O)[C@H](CC2CCCCC2)NC(=O)[C@H](CCN)NC1=O` [Example 1182] ({CH2CO}-[Phe(4-COOH)]Y(Carboxymethyl)D[Phe(3-CF3)][Phe(4-COOH)][Bip]Q[NMeA][dL][Dab][Cha][Val(3-OH)]DC[Dab][AEEA][γGlu][AEEA]-{NH(CH2)12COOH}; thioether N-14), the IC50 stood at 93 nM.

For `CC(C)C[C@H]1NC(=O)[C@H](C)N(C)C(=O)[C@H](CCC(N)=O)NC(=O)[C@H](Cc2ccc(-c3ccccc3)cc2)NC(=O)[C@H](Cc2ccc(C(=O)O)cc2)NC(=O)[C@H](Cc2cccc(C(F)(F)F)c2)NC(=O)[C@H](CC(=O)O)NC(=O)[C@H](Cc2ccc(OCC(=O)O)cc2)NC(=O)[C@H](Cc2ccc(C(=O)O)cc2)NC(=O)CSC[C@@H](C(=O)N[C@@H](CCN)C(=O)NCCOCCOCC(=O)N[C@@H](CCC(=O)NCCOCCOCC(=O)NCCCCCCCCCCCCC(=O)O)C(=O)O)NC(=O)[C@H](CCC(=O)O)NC(=O)[C@H](C(C)C)NC(=O)[C@H](CC2CCCCC2)NC(=O)[C@H](CCN)NC1=O` [Example 1183] ({CH2CO}-[Phe(4-COOH)]Y(Carboxymethyl)D[Phe(3-CF3)][Phe(4-COOH)][Bip]Q[NMeA][dL][Dab][Cha]VEC[Dab][AEEA][γGlu][AEEA]-{NH(CH2)12COOH}; thioether N-14), the 50% inhibitory concentration (IC50) amounted to 94.1 nM.

Regarding `CC(C)C[C@H]1NC(=O)[C@H](C)N(C)C(=O)[C@H](CCC(N)=O)NC(=O)[C@H](Cc2ccc(-c3ccccc3)cc2)NC(=O)[C@H](Cc2ccc(C(=O)O)cc2)NC(=O)[C@H](Cc2cccc(C(F)(F)F)c2)NC(=O)[C@H](CC(=O)O)NC(=O)[C@H](Cc2ccc(OCC(=O)O)cc2)NC(=O)[C@H](Cc2ccc(C(=O)O)cc2)NC(=O)CSC[C@@H](C(=O)N[C@@H](CCN)C(=O)NCCOCCOCC(=O)N[C@@H](CCC(=O)NCCOCCOCC(=O)NCCCCCCCCCCCCC(=O)O)C(=O)O)NC(=O)[C@H](CO)NC(=O)[C@H](C(C)(C)O)NC(=O)[C@H](CC2CCCCC2)NC(=O)[C@H](CCN)NC1=O` [Example 1184] ({CH2CO}-[Phe(4-COOH)]Y(Carboxymethyl)D[Phe(3-CF3)][Phe(4-COOH)][Bip]Q[NMeA][dL][Dab][Cha][Val(3-OH)]SC[Dab][AEEA][γGlu][AEEA]-{NH(CH2)12COOH}; thioether N-14), the half-maximal inhibitory concentration (IC50) worked out at 44 nM.

Take `CC(=O)NCCCC[C@@H]1NC(=O)[C@H](C(C)(C)O)NC(=O)[C@H](CC2CCCCC2)NC(=O)[C@H](CCN)NC(=O)[C@@H](CC(C)C)NC(=O)[C@H](C)N(C)C(=O)[C@H](CCC(N)=O)NC(=O)[C@H](Cc2ccc(-c3ccccc3)cc2)NC(=O)[C@H](Cc2ccc(C(=O)O)cc2)NC(=O)[C@H](Cc2cccc(C(F)(F)F)c2)NC(=O)[C@H](CC(=O)O)NC(=O)[C@H](Cc2ccc(OCC(=O)O)cc2)NC(=O)[C@H](Cc2ccc(C(=O)O)cc2)NC(=O)CSC[C@@H](C(=O)N[C@@H](CCN)C(=O)NCCOCCOCC(=O)N[C@@H](CCC(=O)NCCOCCOCC(=O)NCCCCCCCCCCCCC(=O)O)C(=O)O)NC1=O` [Example 1185] ({CH2CO}-[Phe(4-COOH)]Y(Carboxymethyl)D[Phe(3-CF3)][Phe(4-COOH)][Bip]Q[NMeA][dL][Dab][Cha][Val(3-OH)]K(Ac)C[Dab][AEEA][γGlu][AEEA]-{NH(CH2)12COOH}; thioether N-14): the half-inhibitory concentration (IC50) is 50.2 nM.

`CC(C)C[C@H]1NC(=O)[C@H](C)N(C)C(=O)[C@H](CCCNC(N)=O)NC(=O)[C@H](Cc2ccc(-c3ccccc3)cc2)NC(=O)[C@H](Cc2ccc(C(=O)O)cc2)NC(=O)[C@H](Cc2cccc(C(F)(F)F)c2)NC(=O)[C@H](CC(=O)O)NC(=O)[C@H](Cc2ccc(OCC(=O)O)cc2)NC(=O)[C@H](Cc2ccc(C(=O)O)cc2)NC(=O)CSC[C@@H](C(=O)N[C@@H](CCN)C(=O)NCCOCCOCC(=O)N[C@@H](CCC(=O)NCCOCCOCC(=O)NCCCCCCCCCCCCC(=O)O)C(=O)O)NC(=O)[C@H](CC(=O)O)NC(=O)[C@H](C(C)(C)O)NC(=O)[C@H](CC2CCCCC2)NC(=O)[C@H](CCN)NC1=O` [Example 1186] ({CH2CO}-[Phe(4-COOH)]Y(Carboxymethyl)D[Phe(3-CF3)][Phe(4-COOH)][Bip][Cit][NMeA][dL][Dab][Cha][Val(3-OH)]DC[Dab][AEEA][γGlu][AEEA]-{NH(CH2)12COOH}; thioether N-14): the IC50 amounted to 108 nM.

For the compound `CC(C)C[C@H]1NC(=O)[C@H](C)N(C)C(=O)[C@H](CCCNC(N)=O)NC(=O)[C@H](Cc2ccc(-c3ccccc3)cc2)NC(=O)[C@H](Cc2ccc(C(=O)O)cc2)NC(=O)[C@H](Cc2cccc(C(F)(F)F)c2)NC(=O)[C@H](CC(=O)O)NC(=O)[C@H](Cc2ccc(OCC(=O)O)cc2)NC(=O)[C@H](Cc2ccc(C(=O)O)cc2)NC(=O)CSC[C@@H](C(=O)N[C@@H](CCN)C(=O)NCCOCCOCC(=O)N[C@@H](CCC(=O)NCCOCCOCC(=O)NCCCCCCCCCCCCC(=O)O)C(=O)O)NC(=O)[C@H](CO)NC(=O)[C@H](C(C)(C)O)NC(=O)[C@H](CC2CCCCC2)NC(=O)[C@H](CCN)NC1=O` [Example 1187] ({CH2CO}-[Phe(4-COOH)]Y(Carboxymethyl)D[Phe(3-CF3)][Phe(4-COOH)][Bip][Cit][NMeA][dL][Dab][Cha][Val(3-OH)]SC[Dab][AEEA][γGlu][AEEA]-{NH(CH2)12COOH}; thioether N-14), the IC50 is 37.7 nM.

With `CC(C)C[C@H]1NC(=O)[C@H](C)N(C)C(=O)[C@H](CCC(N)=O)NC(=O)[C@H](Cc2ccc(-c3ccccc3)cc2)NC(=O)[C@H](Cc2ccc(C(=O)O)cc2)NC(=O)[C@H](Cc2cccc(C(F)(F)F)c2)NC(=O)[C@H](CC(=O)O)NC(=O)[C@H](Cc2ccc(OCC(=O)O)cc2)NC(=O)[C@H](CN2CCOCC2)NC(=O)CSC[C@@H](C(=O)N[C@@H](CCN)C(=O)NCCCCCCCCCCCCC(=O)O)NC(=O)[C@H](Cc2c[nH]cn2)NC(=O)[C@H](C(C)(C)O)NC(=O)[C@H](CC2CCCCC2)NC(=O)[C@H](CCN)NC1=O` [Example 1188] ({CH2CO}-[Ala(morpholin-4-yl)]Y(Carboxymethyl)D[Phe(3-CF3)][Phe(4-COOH)][Bip]Q[NMeA][dL][Dab][Cha][Val(3-OH)]HC[Dab]-{NH(CH2)12COOH}; thioether N-14), the half-inhibitory concentration (IC50) amounted to 20.5 nM.

For `CC(C)C[C@H]1NC(=O)[C@H](C)N(C)C(=O)[C@H](CCC(N)=O)NC(=O)[C@H](Cc2ccc(-c3ccccc3)cc2)NC(=O)[C@H](Cc2ccc(C(=O)O)cc2)NC(=O)[C@H](Cc2cccc(C(F)(F)F)c2)NC(=O)[C@H](CC(=O)O)NC(=O)[C@H](Cc2ccc(OCC(=O)O)cc2)NC(=O)[C@H]([C@H](C)N)NC(=O)CSC[C@@H](C(=O)N[C@@H](CCN)C(=O)NCCCCCCCCCCCCC(=O)O)NC(=O)[C@H](CO)NC(=O)[C@H](C(C)(C)O)NC(=O)[C@H](CC2CCCCC2)NC(=O)[C@H](CCN)NC1=O` [Example 1190] ({CH2CO}-[Abu(3S-NH2)]Y(Carboxymethyl)D[Phe(3-CF3)][Phe(4-COOH)][Bip]Q[NMeA][dL][Dab][Cha][Val(3-OH)]SC[Dab]-{NH(CH2)12COOH}; thioether N-14), the 50% inhibitory concentration (IC50) was determined as 18 nM.

For `CC(=O)NCCCC[C@@H]1NC(=O)[C@H](C(C)(C)O)NC(=O)[C@H](CC2CCCCC2)NC(=O)[C@H](CCN)NC(=O)[C@@H](CC(C)C)NC(=O)[C@H](C)N(C)C(=O)[C@H](CCC(N)=O)NC(=O)[C@H](Cc2ccc(-c3ccccc3)cc2)NC(=O)[C@H](Cc2ccc(C(=O)O)cc2)NC(=O)[C@H](Cc2cccc(C(F)(F)F)c2)NC(=O)[C@H](CC(=O)O)NC(=O)[C@H](Cc2ccc(OCC(=O)O)cc2)NC(=O)[C@H]([C@H](C)N)NC(=O)CSC[C@@H](C(=O)N[C@@H](CCN)C(=O)NCCCCCCCCCCCCC(=O)O)NC1=O` [Example 1191] ({CH2CO}-[Abu(3S-NH2)]Y(Carboxymethyl)D[Phe(3-CF3)][Phe(4-COOH)][Bip]Q[NMeA][dL][Dab][Cha][Val(3-OH)]K(Ac)C[Dab]-{NH(CH2)12COOH}; thioether N-14), the half-inhibitory concentration (IC50) was 7.4 nM.

Consider `CC(C)C[C@H]1NC(=O)[C@H](C)N(C)C(=O)[C@H](CCC(N)=O)NC(=O)[C@H](Cc2ccc(-c3ccccc3)cc2)NC(=O)[C@H](Cc2ccc(C(=O)O)cc2)NC(=O)[C@H](Cc2cccc(C(F)(F)F)c2)NC(=O)[C@H](CC(=O)O)NC(=O)[C@H](Cc2ccc(OCC(=O)O)cc2)NC(=O)[C@H]([C@H](C)N)NC(=O)CSC[C@@H](C(=O)N[C@@H](CCN)C(=O)NCCCCCCCCCCCCC(=O)O)NC(=O)[C@H](Cc2c[nH]cn2)NC(=O)[C@H](C(C)(C)O)NC(=O)[C@H](CC2CCCCC2)NC(=O)[C@H](CCN)NC1=O` [Example 1192] ({CH2CO}-[Abu(3S-NH2)]Y(Carboxymethyl)D[Phe(3-CF3)][Phe(4-COOH)][Bip]Q[NMeA][dL][Dab][Cha][Val(3-OH)]HC[Dab]-{NH(CH2)12COOH}; thioether N-14), for which the concentration for half-maximal inhibition (IC50) amounted to 17.5 nM.
